Literature values, collected in US10584074B2, “Microencapsulated nitrification inhibitor compositions” (Dow AgroSciences LLC, priority 2017, dated 2020).

Settings: at 23° Celsius

Q: For `Clc1cccc(C(Cl)(Cl)Cl)n1` [nitrapyrin, 2-chloro-6-(trichloromethyl)pyridine], which vapor pressure is on record?
A: The vapor pressure was 2.8×10^−3 mm Hg.
